The supplement of paper PMC13380429

Legend:
Details in all cases: 72 h
Caco-2 [1] = assay: cell viability relative to DMSO; higher = less toxic
Calu-3 [2] = assay: as above
HepG2 [3] = assay: as above
U2OS [4] = assay: as above
Vero E6 [5] = assay: as above
Caco-2 [6] = assay: relative viability EC50 (midpoint between 100% and the lowest measured viability); higher = less toxic
Calu-3 [7] = assay: as above
HepG2 [8] = assay: as above
U2OS [9] = assay: as above
Vero E6 [10] = assay: as above
Caco-2 [11] = assay: drug sensitivity score (DSS) for viability; higher = more toxic; extreme values may be limits of the assay
Calu-3 [12] = assay: as above
HepG2 [13] = assay: as above
U2OS [14] = assay: as above
Vero E6 [15] = assay: as above

SMILES	cell viability (Caco-2 [1]; 1 nM) [%]	cell viability (Caco-2 [1]; 10 nM) [%]	cell viability (Caco-2 [1]; 100 nM) [%]	cell viability (Caco-2 [1]; 1000 nM) [%]	cell viability (Caco-2 [1]; 10000 nM) [%]	cell viability (Calu-3 [2]; 1 nM) [%]	cell viability (Calu-3 [2]; 10 nM) [%]	cell viability (Calu-3 [2]; 100 nM) [%]	cell viability (Calu-3 [2]; 1000 nM) [%]	cell viability (Calu-3 [2]; 10000 nM) [%]	cell viability (HepG2 [3]; 1 nM) [%]	cell viability (HepG2 [3]; 10 nM) [%]	cell viability (HepG2 [3]; 100 nM) [%]	cell viability (HepG2 [3]; 1000 nM) [%]	cell viability (HepG2 [3]; 10000 nM) [%]	cell viability (U2OS [4]; 1 nM) [%]	cell viability (U2OS [4]; 10 nM) [%]	cell viability (U2OS [4]; 100 nM) [%]	cell viability (U2OS [4]; 1000 nM) [%]	cell viability (U2OS [4]; 10000 nM) [%]	cell viability (Vero E6 [5]; 1 nM) [%]	cell viability (Vero E6 [5]; 10 nM) [%]	cell viability (Vero E6 [5]; 100 nM) [%]	cell viability (Vero E6 [5]; 1000 nM) [%]	cell viability (Vero E6 [5]; 10000 nM) [%]	relative viability EC50 (Caco-2 [6]) [µM]	relative viability EC50 (Calu-3 [7]) [µM]	relative viability EC50 (HepG2 [8]) [µM]	relative viability EC50 (U2OS [9]) [µM]	relative viability EC50 (Vero E6 [10]) [µM]	drug sensitivity score (Caco-2 [11])	drug sensitivity score (Calu-3 [12])	drug sensitivity score (HepG2 [13])	drug sensitivity score (U2OS [14])	drug sensitivity score (Vero E6 [15])
Cc1cnc(-c2cc(N3CCN(C(=O)CCS(C)(=O)=O)CC3)ncc2Cl)c(C)c1	103	90.2	102	99.1	106	104	105	92.8	110	109	99.9	93.2	98.6	101	113	92.1	101	98.1	105	101	94.5	93.4	95.4	95.3	102	> 10	> 10	> 10	> 10	> 10	0	0	0	0	0
COc1ccccc1N1CCN(CCn2c(=O)[nH]c3c([nH]c4ccccc43)c2=O)CC1 [3-MPPI]	96	93.8	99.4	96.1	103	99.6	105	104	98.8	106	102	111	106	102	92.2	103	98	102	99.4	101	104	104	102	99.4	103	> 10	> 10	> 10	> 10	> 10	0	0	0	0	0
Cc1ccc(Oc2ccccc2-c2csc(N=C3NCCCN3)n2)c(C)c1 [abafungin]	104	105	100	87.5	78.3	90.4	99	104	99.3	112	105	104	104	87.8	75.8	91.6	95.2	93.6	96.7	91.2	106	99.8	105	99.4	97.7	> 10	> 10	> 10	> 10	> 10	2	0	2.3	0	0
O=C(NCC1CCCCN1)c1cc(OCC(F)(F)F)ccc1OCC(F)(F)F (stereo not given) [flecainide]	94.1	89.9	94.5	86	104	108	100	97.5	101	101	96.5	103	93.3	94.9	106	98.8	97.2	103	100	97.6	90	99.6	90.1	93.8	99.1	> 10	> 10	> 10	> 10	> 10	0	0	0	0	0
C[C@H](Cc1ccc(OCC(=O)O)cc1)NC[C@H](O)c1cccc(Cl)c1	98.6	89.6	105	94.8	103	97.9	101	103	100	90.7	104	111	98.4	99.8	97.7	98	93.3	96	102	99.8	97.6	95.9	91.7	92.3	105	> 10	> 10	> 10	> 10	> 10	0	0	0	0	0
CN(C)CCCCSC(=N)N	104	111	99.6	105	97.9	90.6	89.5	89	91.8	90.1	104	103	90.7	93	95.1	94	92.8	100	94.7	97.8	104	108	101	105	99.3	> 10	> 10	> 10	> 10	> 10	0	0.8	0	0	0
COC(=O)CCc1ccc(OCC(O)CNC(C)C)cc1 (stereo not given) [esmolol]	102	84.8	98.5	95.5	97.8	111	99.8	96.9	105	102	110	102	94.5	109	96.5	101	95	94.6	94.1	99	97.2	93.1	95.5	100	95.5	> 10	> 10	> 10	> 10	> 10	0	0	0	0	0
